Data reported in patent US20090158447A1, “TLR ligand and IL-1 Response-Injured Animal Model” (priority 2004, published 2009).

Each molecule was assayed on peritoneal macrophages or lung-derived normal cells (assay: Northern blot analysis of IκB-ζ, Bcl-3 and IκB-α expression on TLR/IL-1R stimulation). Conditions: stimulation for 2 hours, FIG. 1a.
Type: cell-based, mouse
Description: Peritoneal macrophages and lung primary cells were stimulated with 100 ng ml^−1 BLP, 10 μg ml^−1 PGN, 30 ng ml^−1 MALP-2, 100 nM R-848, 3 μM CpG DNA, 10 ng ml^−1 IL-1β, 10 μg ml^−1 LPS, 100 ng ml^−1 flagellin, and 10 ng ml^−1 TNF-α for 2 hours. Total RNA (10 μg) was extracted and subjected to Northern blot analysis for investigating the expression of IκB-ζ, Bcl-3, IκB-α, and β-actin. b. MEFs from wild-type and MyD88-deficient mice were stimulated with 10 ng ml^−1 IL-1β and 10 μg ml^−1 LPS for the indicated periods. Total RNA (10 μg) was extracted and subjected to Northern blot analysis for investigating the expression of IκB-ζ, Cox-2, IP-10, and β-actin.
Whether IκB-ζ would be induced in response to other TLR ligands was examined based on the fact that stimulation with IL-1 or LPS induces IκB-ζ in macrophage cell lines and fibroblasts, and that IL-1R and the receptor for LPS, TLR4, share the intracellular signaling pathways. […] On the other hand, other IκB family members, IκB-α and Bcl-3, were induced in response to TNF-αas well as a TLR ligand and IL-1. Taken together, unlike IκB-α and Bcl-3, the IκB-ζ induction is specifically detected on the TLR/IL-1R stimulation.

| Molecule | IκB-ζ mRNA induction | Bcl-3 induction | IκB-α induction |
| --- | --- | --- | --- |
| peptidoglycan [PGN] | strongly induced |  |  |
| TNF-α | no induction was observed | induced | induced |
| CCOCc1nc2c(N)nc3ccccc3c2n1CC(C)(C)O [R848] | strongly induced |  |  |
| MALP-2 | strongly induced |  |  |
| flagellin | strongly induced |  |  |
| IL-1: Interleukin-1; recombinant IL-1β obtained from Genzyme | strongly induced | induced | induced |
